From ChEMBL document CHEMBL3797052 (Eur J Med Chem, 2016)

Assays:
[1] = Antiproliferative activity against human Caki1 cells assessed as cell growth at 10^-4 M after 48 hrs by sulforhodamine B assay; assay type: functional; conditions: CAKI-1, 48 h, read-out: Activity
[2] = Antiproliferative activity against human SF295 cells assessed as cell growth at 10^-6 M after 48 hrs by sulforhodamine B assay; assay type: functional; conditions: SF-295, 48 h, read-out: Activity
[3] = Antiproliferative activity against human SF295 cells assessed as growth inhibition after 48 hrs by sulforhodamine B assay; assay type: functional; conditions: SF-295, 48 h; for CC50: read-out: LC50 (the source's name)
[4] = Antiproliferative activity against human OVCAR8 cells assessed as cell growth at 10^-8 M after 48 hrs by sulforhodamine B assay; assay type: functional; conditions: OVCAR-8, 48 h, read-out: Activity
SN12C = test: Antiproliferative activity against human SN12C cells assessed as growth inhibition after 48 hrs by sulforhodamine B assay; assay type: functional; conditions: for CC50: read-out: LC50 (the source's name)
MDA-MB-468 = test: Antiproliferative activity against human MDA-MB-468 cells assessed as growth inhibition after 48 hrs by sulforhodamine B assay; assay type: functional; conditions: MDA-MB-468, 48 h; for CC50: read-out: LC50 (the source's name)
[5] = Antiproliferative activity against human PC3 cells assessed as cell growth at 10^-6 M after 48 hrs by sulforhodamine B assay; assay type: functional; conditions: PC-3, 48 h, read-out: Activity
NCI-H226 = test: Antiproliferative activity against human NCI-H226 cells assessed as cell growth at 10^-7 M after 48 hrs by sulforhodamine B assay; assay type: functional; conditions: NCI-H226, 48 h, read-out: Activity
[6] = Antiproliferative activity against human SW620 cells assessed as growth inhibition after 48 hrs by sulforhodamine B assay; assay type: functional; conditions: SW-620, 48 h; for CC50: read-out: LC50 (the source's name)
M14 [7] = test: Antiproliferative activity against human M14 cells assessed as cell growth at 10^-7 M after 48 hrs by sulforhodamine B assay; assay type: functional; conditions: M14, 48 h, read-out: Activity
SK-MEL-5 = test: Antiproliferative activity against human SK-MEL-5 cells assessed as cell growth at 10^-6 M after 48 hrs by sulforhodamine B assay; assay type: functional; conditions: SK-MEL-5, 48 h, read-out: Activity
T47D = test: Antiproliferative activity against human T47D cells assessed as cell growth at 10^-4 M after 48 hrs by sulforhodamine B assay; assay type: functional; conditions: read-out: Activity
hERG (KCNH2) = hERG (KCNH2) (Homo sapiens, UniProt Q12809); test: Inhibition of human ERG assessed as reduction in channel current at 100 uM by automated patch-clamp electrophysiology assay
[8] = Antiproliferative activity against human OVCAR4 cells assessed as cell growth at 10^-7 M after 48 hrs by sulforhodamine B assay; assay type: functional; conditions: OVCAR-4, 48 h, read-out: Activity
[9] = Antiproliferative activity against human HOP92 cells assessed as cell growth at 10^-4 M after 48 hrs by sulforhodamine B assay; assay type: functional; conditions: HOP-92, 48 h, read-out: Activity
M14 [10] = test: Antiproliferative activity against human M14 cells assessed as cell growth at 10^-8 M after 48 hrs by sulforhodamine B assay; assay type: functional; conditions: M14, 48 h, read-out: Activity
[11] = Antiproliferative activity against human HCT116 cells assessed as cell growth at 10^-4 M after 48 hrs by sulforhodamine B assay; assay type: functional; conditions: HCT-116, 48 h, read-out: Activity
NCI-H322M = test: Antiproliferative activity against human NCI-H322M cells assessed as cell growth at 10^-7 M after 48 hrs by sulforhodamine B assay; assay type: functional; conditions: read-out: Activity
[12] = Antiproliferative activity against human SF539 cells assessed as cell growth at 10^-7 M after 48 hrs by sulforhodamine B assay; assay type: functional; conditions: SF-539, 48 h, read-out: Activity
[13] = Antiproliferative activity against human SNB19 cells assessed as cell growth at 10^-7 M after 48 hrs by sulforhodamine B assay; assay type: functional; conditions: SNB-19, 48 h, read-out: Activity
NCI-H522 = test: Antiproliferative activity against human NCI-H522 cells assessed as growth inhibition after 48 hrs by sulforhodamine B assay; assay type: functional; conditions: NCI-H522, 48 h
[14] = Antiproliferative activity against human UACC62 cells assessed as cell growth at 10^-6 M after 48 hrs by sulforhodamine B assay; assay type: functional; conditions: UACC-62, 48 h, read-out: Activity
[15] = Antiproliferative activity against human SNB19 cells assessed as cell growth at 10^-6 M after 48 hrs by sulforhodamine B assay; assay type: functional; conditions: SNB-19, 48 h, read-out: Activity
HT-29 = test: Antiproliferative activity against human HT-29 cells assessed as cell growth at 10^-4 M after 48 hrs by sulforhodamine B assay; assay type: functional; conditions: HT-29, 48 h, read-out: Activity
NCI-H460 = test: Antiproliferative activity against human NCI-H460 cells assessed as growth inhibition after 48 hrs by sulforhodamine B assay; assay type: functional; conditions: NCI-H460, 48 h
[16] = Antiproliferative activity against human OVCAR3 cells assessed as cell growth at 10^-6 M after 48 hrs by sulforhodamine B assay; assay type: functional; conditions: OVCAR-3, 48 h, read-out: Activity
[17] = Antiproliferative activity against human HOP62 cells assessed as cell growth at 10^-6 M after 48 hrs by sulforhodamine B assay; assay type: functional; conditions: HOP-62, 48 h, read-out: Activity
M14 [18] = test: Antiproliferative activity against human M14 cells assessed as growth inhibition after 48 hrs by sulforhodamine B assay; assay type: functional; conditions: M14, 48 h; for CC50: read-out: LC50 (the source's name)
SK-MEL-28 [19] = test: Antiproliferative activity against human SK-MEL-28 cells assessed as cell growth at 10^-7 M after 48 hrs by sulforhodamine B assay; assay type: functional; conditions: SK-MEL-28, 48 h, read-out: Activity
SK-MEL-28 [20] = test: Antiproliferative activity against human SK-MEL-28 cells assessed as cell growth at 10^-8 M after 48 hrs by sulforhodamine B assay; assay type: functional; conditions: SK-MEL-28, 48 h, read-out: Activity
MDA-MB-231 = test: Antiproliferative activity against human MDA-MB-231 cells assessed as cell growth at 10^-4 M after 48 hrs by sulforhodamine B assay; assay type: functional; conditions: MDA-MB-231, 48 h, read-out: Activity
[21] = Antiproliferative activity against human SNB19 cells assessed as cell growth at 10^-8 M after 48 hrs by sulforhodamine B assay; assay type: functional; conditions: SNB-19, 48 h, read-out: Activity
CCRF-CEM = test: Antiproliferative activity against human CCRF-CEM cells assessed as growth inhibition after 48 hrs by sulforhodamine B assay; assay type: functional; conditions: for CC50: read-out: LC50 (the source's name)
[22] = Antiproliferative activity against human BT549 cells assessed as cell growth at 10^-4 M after 48 hrs by sulforhodamine B assay; assay type: functional; conditions: BT-549, 48 h, read-out: Activity
[23] = Antiproliferative activity against human OVCAR5 cells assessed as growth inhibition after 48 hrs by sulforhodamine B assay; assay type: functional; conditions: OVCAR-5, 48 h

Chain of hERG (KCNH2) (Q12809 whole entry): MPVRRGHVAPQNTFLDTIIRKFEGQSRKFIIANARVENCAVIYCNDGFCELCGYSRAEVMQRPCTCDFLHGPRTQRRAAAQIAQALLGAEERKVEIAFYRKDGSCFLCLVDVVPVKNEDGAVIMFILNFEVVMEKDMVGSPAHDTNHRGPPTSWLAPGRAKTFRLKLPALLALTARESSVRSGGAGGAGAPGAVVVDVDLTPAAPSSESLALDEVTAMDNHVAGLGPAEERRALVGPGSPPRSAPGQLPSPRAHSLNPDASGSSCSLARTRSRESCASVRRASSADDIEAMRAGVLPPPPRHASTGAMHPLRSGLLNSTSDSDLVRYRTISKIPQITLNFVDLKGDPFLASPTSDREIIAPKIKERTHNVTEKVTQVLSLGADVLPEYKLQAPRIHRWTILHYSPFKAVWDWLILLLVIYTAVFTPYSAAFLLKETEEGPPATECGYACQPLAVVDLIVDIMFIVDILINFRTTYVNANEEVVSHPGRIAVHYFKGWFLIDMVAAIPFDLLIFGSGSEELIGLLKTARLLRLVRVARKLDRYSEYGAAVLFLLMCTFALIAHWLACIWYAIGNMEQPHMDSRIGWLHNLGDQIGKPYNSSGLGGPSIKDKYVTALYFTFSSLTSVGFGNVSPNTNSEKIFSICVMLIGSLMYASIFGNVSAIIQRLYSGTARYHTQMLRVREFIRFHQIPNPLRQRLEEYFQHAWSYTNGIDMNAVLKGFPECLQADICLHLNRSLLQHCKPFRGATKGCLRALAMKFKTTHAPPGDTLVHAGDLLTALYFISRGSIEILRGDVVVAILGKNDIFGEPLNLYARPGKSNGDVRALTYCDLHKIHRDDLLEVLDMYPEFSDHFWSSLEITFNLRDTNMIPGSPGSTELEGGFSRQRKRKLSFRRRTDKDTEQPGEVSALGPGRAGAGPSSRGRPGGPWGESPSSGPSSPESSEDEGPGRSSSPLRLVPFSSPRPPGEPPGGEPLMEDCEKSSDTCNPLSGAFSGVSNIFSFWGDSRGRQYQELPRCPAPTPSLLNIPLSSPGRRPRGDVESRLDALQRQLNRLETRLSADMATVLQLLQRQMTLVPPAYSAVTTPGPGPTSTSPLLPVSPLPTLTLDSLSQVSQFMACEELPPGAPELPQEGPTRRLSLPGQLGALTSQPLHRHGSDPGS

SMILES: CNC(=O)c1cc(Oc2ccc3nc(NC(=O)Nc4ccc(Cl)c(Cl)c4)sc3c2)ccn1
- growth at 100 µM [1]: -17%
- growth at 1 µM [2]: 79%
- GI50 [3]: 1.53 µM
- TGI [3]: 3.13 µM
- CC50 [3]: 6.41 µM
- growth at 0.01 µM [4]: 103%
- GI50 (SN12C): 3.92 µM
- TGI (SN12C): > 100 µM
- CC50 (SN12C): > 100 µM
- GI50 (MDA-MB-468): 1.97 µM
- TGI (MDA-MB-468): 5.09 µM
- CC50 (MDA-MB-468): > 100 µM
- growth at 1 µM [5]: 92%
- growth at 0.1 µM (NCI-H226): 106%
- GI50 [6]: 8.11 µM
- TGI [6]: > 100 µM
- CC50 [6]: > 100 µM
- growth at 0.1 µM (M14 [7]): 96%
- growth at 1 µM (SK-MEL-5): 94%
- growth at 100 µM (T47D): -21%
- inhibition at 100 µM (hERG (KCNH2)): 47.9%
- growth at 0.1 µM [8]: 100%
- growth at 100 µM [9]: -66%
- growth at 0.01 µM (M14 [10]): 93%
- growth at 100 µM [11]: -54%
- growth at 0.1 µM (NCI-H322M): 87%
- growth at 0.1 µM [12]: 100%
- growth at 0.1 µM [13]: 110%
- GI50 (NCI-H522): 4.09 µM
- LC50 (concentration killing 50% of cells) (NCI-H522): > 100 µM
- TGI (NCI-H522): > 100 µM
- growth at 1 µM [14]: 85%
- growth at 1 µM [15]: 100%
- growth at 100 µM (HT-29): -49%
- GI50 (NCI-H460): 2.43 µM
- LC50 (concentration killing 50% of cells) (NCI-H460): > 100 µM
- TGI (NCI-H460): 5.32 µM
- growth at 1 µM [16]: 99%
- growth at 1 µM [17]: 119%
- GI50 (M14 [18]): 2.13 µM
- TGI (M14 [18]): 4.74 µM
- CC50 (M14 [18]): > 100 µM
- growth at 0.1 µM (SK-MEL-28 [19]): 100%
- growth at 0.01 µM (SK-MEL-28 [20]): 95%
- growth at 100 µM (MDA-MB-231): -44%
- growth at 0.01 µM [21]: 98%
- GI50 (CCRF-CEM): > 100 µM
- TGI (CCRF-CEM): > 100 µM
- CC50 (CCRF-CEM): > 100 µM
- growth at 100 µM [22]: 6%

SMILES: CNC(=O)c1cc(Oc2ccc3nc(NC(=O)Nc4ccc(Cl)c(C(F)(F)F)c4)sc3c2)ccn1
- growth at 100 µM [1]: 17%
- growth at 1 µM [2]: 90%
- GI50 [23]: 2.46 µM
- TGI [23]: 7.55 µM
- CC50 ([23]; read-out: LC50 (the source's name)): > 100 µM
- GI50 [3]: 1.79 µM
- TGI [3]: 3.71 µM
- CC50 [3]: 7.66 µM
- growth at 0.01 µM [4]: 105%
- GI50 (SN12C): 2.44 µM
- TGI (SN12C): > 100 µM
- CC50 (SN12C): > 100 µM
- GI50 (MDA-MB-468): 1.36 µM
- TGI (MDA-MB-468): 4.1 µM
- CC50 (MDA-MB-468): > 100 µM
- growth at 1 µM [5]: 71%
- growth at 0.1 µM (NCI-H226): 99%
- GI50 [6]: 2.99 µM
- TGI [6]: > 100 µM
- CC50 [6]: > 100 µM
- growth at 0.1 µM (M14 [7]): 92%
- growth at 1 µM (SK-MEL-5): 87%
- growth at 100 µM (T47D): -16%
- inhibition at 100 µM (hERG (KCNH2)): 26.2%
- growth at 0.1 µM [8]: 95%
- growth at 100 µM [9]: -64%
- growth at 0.01 µM (M14 [10]): 90%
- growth at 100 µM [11]: -19%
- growth at 0.1 µM (NCI-H322M): 103%
- growth at 0.1 µM [12]: 97%
- growth at 0.1 µM [13]: 100%
- GI50 (NCI-H522): 2.54 µM
- LC50 (concentration killing 50% of cells) (NCI-H522): > 100 µM
- TGI (NCI-H522): > 100 µM
- growth at 1 µM [14]: 83%
- growth at 1 µM [15]: 85%
- growth at 100 µM (HT-29): 68%
- GI50 (NCI-H460): 1.79 µM
- growth at 1 µM [16]: 108%
- growth at 1 µM [17]: 87%
- GI50 (M14 [18]): 1.96 µM
- CC50 (M14 [18]): > 100 µM
- growth at 0.1 µM (SK-MEL-28 [19]): 92%
- growth at 0.01 µM (SK-MEL-28 [20]): 92%
- growth at 100 µM (MDA-MB-231): -53%
- growth at 0.01 µM [21]: 101%
- TGI (CCRF-CEM): > 100 µM
- CC50 (CCRF-CEM): > 100 µM
- growth at 100 µM [22]: -6%
